# Reference: US20250369975A1, “METHOD FOR DETECTING TRANSTHYRETIN TETRAMER, AND METHOD FOR EVALUATING STABILITY” (SYSMEX CORPORATION, priority 2024, published 2025)
# Where two headings read alike, the source gives them in different places.
# Experiments:
# Type in all cases: binding
# [1] = system: TTR tetramer (recombinant human transthyretin WT, T119M, V30M); conditions: probe solution 0.2 μM mixed with sample; FIG. 18A-B
# [2] = system: TTR tetramer (recombinant human transthyretin WT, T119M, V30M); conditions: probe solution 10 μM; recombinant TTR 100 ng/mL; FIG. 14A-D
# [3] = system: TTR tetramer (recombinant human transthyretin WT, T119M, V30M); conditions: probe solution 0.3 μM immobilized on solid phase; recombinant TTR 100 ng/mL; FIG. 16A-B
# [4] = target: T1, TTR tetramer in blood sample (serum, plasma) (Homo sapiens, UniProt P02766); experiment: Example 2: same format, serially diluted serum and plasma samples; conditions: probe immobilized on solid phase
# T1 construct: serially diluting commercially available serum (ProMedex Corporation, 12011378); tissue ProMedex Corporation (serum); host or cells: serum and plasma mix
# Description: (§1) (1.2) Blood sample Six serum samples were prepared by serially diluting commercially available serum (ProMedex Corporation, 12011378) with 1% BSA/0.5% casein/PBS. Also six plasma samples were prepared by serially diluting a commercially available plasma mix with 1% BSA/0.5% casein/PBS.
# The sample containing the recombinant TTR and the blood sample were the same as in Example 1. Probes C5 and C6 were diluted with 1% BSA/0.5% casein/PBS, to prepare a probe solution (0.3 μM). An ALP-labeled polyclonal anti-TTR antibody is used as the labeled antibody capable of binding to the TTR monomer. The labeled antibody was prepared by labeling a polyclonal rabbit anti-human prealbumin antibody (Agilent, A0002) with ALP by a usual method. […]
# To each well of the plate, 300 μL of a blocking solution (1% BSA/0.5% casein/PBS) was added, followed by incubation for 1 hour at room temperature. […] 100 μL of a substrate solution of ALP was added to each well, and after 15 minutes, a chemiluminescence signal was measured with a plate reader. The samples were measured twice, and an average value of the two measured values was acquired. Results of measurement of the sample that contains the recombinant TTR are illustrated in FIGS. 16A and B. Measured results of the blood samples are illustrated in FIGS. 17A to D.
# [5] = target: T2, TTR tetramer in plasma sample (Homo sapiens, UniProt P02766); experiment: Example 3: same format, serially diluted plasma samples; conditions: probe solution 0.2 μM, FIG. 19B
# T2 construct: serially diluting commercially available serum (ProMedex Corporation, 12011378); tissue ProMedex Corporation (serum); host or cells: serum and plasma mix
# Description: as §1
# The sample containing the recombinant TTR and the plasma sample were the same as in Example 1. Probes C5 and C6 were diluted with 1% BSA/0.5% casein/PBS, to prepare a probe solution (0.2 μM). The same ALP-labeled polyclonal anti-TTR antibody as in Example 2 was diluted 3200 times with 1% BSA/0.1% goat IgG/0.01% mouse IgG/0.005% scavenger ALP/PBS, to prepare a labeled antibody solution. The substrate solution and solid phase of ALP were the same as those in Example 2.
# 150 μL of each sample and 150 μL of the probe solution were mixed, and incubated at room temperature for 1 hour. As a control (blank), instead of the sample, 150 μL of 1% BSA/0.5% casein/PBS and 150 μL of the probe solution were mixed, and incubated in the same manner. […] 100 μL of a substrate solution of ALP was added to each well, and after 15 minutes, a chemiluminescence signal was measured with a plate reader. The samples were measured twice, and an average value of the two measured values was acquired. […]
# [6] = target: T3, TTR tetramer (wild-type recombinant human transthyretin) (Homo sapiens, UniProt P02766); experiment: Example 5: HISCL-5000 automated immunoassay, tagged probe, streptavidin magnetic particle, ALP-labeled monoclonal anti-TTR antibody; conditions: R1 reagent 0.3 μM probe; WT TTR 10 and 100 μg/mL; FIG. 21B
# T3 construct: purchased AlexoTech T-500-10
# Description: A sample containing wild-type (WT) recombinant TTR at respective concentrations of 10 μg/mL and 100 μg/mL was prepared by diluting transthyretin (wild-type) human, recombinant (AlexoTech, T-500-10) with 1% BSA/0.5% casein/PBS.
# (2.1) R1 reagent As R1 buffer, a […] buffer (pH 8.0±0.05) containing 1% BSA, 0.15 g/L mouse IgG, 0.1% sodium azide, […], 0.1% Tween® 20 and 20 mg/mL alkaline phosphatase (AP) mutein was prepared. Probe C5 was diluted with R1 buffer, to prepare R1 reagent (0.1 μM) containing probe C5. Probe C6 was also diluted with R1 buffer, to prepare R1 reagent (0.3 μM) that contains probe C6.
# As R3 buffer, a 0.1 mol/L HEPES buffer (pH 8.0±0.05) containing 1% BSA, 0.15 g/L murine IgG, 0.1% sodium azide, 0.15 mol/L NaCl, 0.1% Tween20.20 mg/mL AP mutein, 1.0 mmol/L MgCl, and 0.1 mmol/L ZnCl of 2 was prepared. An ALP-labeled monoclonal anti-TTR antibody was used as the labeled antibody capable of binding to the TTR monomer. […]
# 50 μL of each R1 reagent was added to the cuvette, to which 30 μL of the sample was then added, followed by incubation for 2.5 minutes. […] Five minutes later, the chemiluminescence signal was measured with HISCL-5000. As a control (blank), the sample was similarly measured with use of 30 μL of 1% BSA/0.5% casein/PBS instead of the sample. […]
smiles,measurement,setting,value
"O=C(CCCCC1SCC2NC(=O)NC21)NCCOCCOCCOCCOCCOCCOCCOCCOCCOCCOCCOCCOCCC(=O)Nc1ccc(/C=C/c2cc(Br)c(O)c(Br)c2)cc1 (stereo not shown) [Probe C6, Biotin-PEG12-Stilbene Derivative]","chemiluminescence signal measured values of WT, T119M and V30M samples versus blank",[1],a result similar to that of FIG. 18 A
same,"chemiluminescence signal measured values of WT, T119M and V30M samples versus blank",[2],results similar to those of FIG. 14 A
same,"chemiluminescence signal measured values of WT, T119M and V30M samples versus blank",[3],a result similar to that of FIG. 16 A
same,signal measured value of the plasma sample versus dilution factor,"[4]; serially diluted plasma, FIG. 17D",similarly increased according to the dilution factor
same,signal measured value of the serum sample versus dilution factor,"[4]; serially diluted serum, FIG. 17C",increased according to the dilution factor
same,signal measured value of the plasma sample versus dilution factor,[5],increased according to the dilution factor
same,signal measured value versus level of recombinant TTR in the sample,[6],increased corresponding to the level of the recombinant TTR in the sample
